The text below walks through data of patent publication US8722849B2, “Polypeptides” (Novo Nordisk A/S, priority 2011, dated 2014).

The target in data set [1] is T1, human amylin receptor (amylin 3(a) receptor: human calcitonin receptor + RAMP-3) (Homo sapiens, UniProt O60896+P30988).
T1 construct: expressed in transfected cells; host or cells: BHK570
T1 sequence (P30988 25-474): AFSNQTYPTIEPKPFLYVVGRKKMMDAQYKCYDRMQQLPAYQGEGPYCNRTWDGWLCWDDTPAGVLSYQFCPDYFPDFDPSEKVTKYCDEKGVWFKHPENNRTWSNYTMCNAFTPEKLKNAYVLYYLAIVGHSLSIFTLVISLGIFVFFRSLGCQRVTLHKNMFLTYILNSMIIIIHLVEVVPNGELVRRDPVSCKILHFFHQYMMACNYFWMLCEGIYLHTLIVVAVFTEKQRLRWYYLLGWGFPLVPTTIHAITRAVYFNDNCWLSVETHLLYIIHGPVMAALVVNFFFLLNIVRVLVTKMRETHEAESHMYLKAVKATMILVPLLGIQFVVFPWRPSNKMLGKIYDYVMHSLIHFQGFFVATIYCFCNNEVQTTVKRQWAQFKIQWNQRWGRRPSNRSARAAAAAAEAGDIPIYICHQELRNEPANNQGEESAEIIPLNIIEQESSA
T1 sequence (O60896 24-148 partner): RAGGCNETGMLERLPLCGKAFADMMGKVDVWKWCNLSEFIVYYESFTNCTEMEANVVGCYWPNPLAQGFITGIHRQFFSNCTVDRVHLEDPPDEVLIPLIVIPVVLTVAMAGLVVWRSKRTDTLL
The experiment in a line: Assay (II)a functional CRE-luciferase assay, human amylin receptor. The class given is cell-based. The following applies: Table 2; BHK amylin 3(a)-receptor/CRE-luc cells.

The target in data set [2] is T2, human calcitonin receptor (Homo sapiens, UniProt P30988).
T2 construct: expressed in transfected cells; host or cells: BHK570
T2 sequence (P30988 25-474): T1 sequence (P30988 25-474)
In words: Assay (II)a functional CRE-luciferase assay, human calcitonin receptor. The class given is cell-based. The following applies: Table 7; human calcitonin (CTa) receptor.

Data set [3] can be described thus: Assay (III) ThT fibrillation assay for physical stability. The class given is physicochemical. Put shortly: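 Freshly prepared formulations, pH-adjusted, with 1 μM ThT; four or eight replicates incubated at 37 °C under 960 rpm orbital shaking. Fluorescence (ex 444/em 485 nm) read every 20 min; […]. Peptide concentration measured by RP-HPLC before and after the run.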

Data set [4] is described as follows: Assay (IV) determination of solubility. It is filed as physicochemical. An outline of the steps:
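Solubility is measured across pH 3.0–8.0 by mixing a ~500 nmol/ml aqueous polypeptide stock 1:1 with 100 mM glycylglycine or bistrispropane buffers. Samples stand 18 hours at room temperature, then are centrifuged and the soluble concentration is determined by HPLC.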

Setting [5] is: bistrispropane buffer, pH 6, pH 6.0, read-out: Solubility pH 6.0.
Where [6] appears, read: bistrispropane buffer, pH 6.5, pH 6.5, read-out: Solubility pH 6.5.
Where [7] appears, read: bistrispropane buffer, pH 7, pH 7.0, 18 hours at room temperature, Table 3, read-out: Solubility pH 7.0.
Where [8] appears, read: bistrispropane buffer, pH 7, pH 7.0, read-out: Solubility pH 7.0.
[9] abbreviates: bistrispropane buffer, pH 7.5, pH 7.5, read-out: Solubility pH 7.5.
Where [10] appears, read: bistrispropane buffer, pH 8, pH 8.0, read-out: Solubility pH 8.0.
The mark [11] stands for this setting: glycylglycine buffer, pH 3, pH 3.0, read-out: Solubility pH 3.0.
Where [12] appears, read: glycylglycine buffer, pH 4, pH 4.0, 18 hours at room temperature, Table 2, read-out: Solubility pH 4.0.
The mark [13] stands for this setting: glycylglycine buffer, pH 4, pH 4.0, read-out: Solubility pH 4.0.
Where [14] appears, read: glycylglycine buffer, pH 5, pH 5.0, read-out: Solubility pH 5.0.

The structures appear in SMILES notation. ≈ marks a conversion by molar mass, not a printed value. Where two headings read alike, the source gives them in different places. Starred links: 1 amine or outer side, 2 acyl side, 3 side chain; linkers in the order of their positions; H or OH if unused. Positions of bridges follow the written chain, without caps; N, C: chain ends. Residues, ends and D or L forms follow the SMILES beside them. *: point of attachment. C20 diacid = O=C(O)CCCCCCCCCCCCCCCCCCC(=O)*; γGlu = O=C(O)[C@H](CCC(=O)[*:2])N[*:1]

With `CC[C@H](C)[C@H](NC(=O)[C@@H]1CCCN1C(=O)CNC(=O)[C@H](Cc1ccccc1)NC(=O)[C@H](CC(N)=O)NC(=O)[C@H](CC(N)=O)NC(=O)[C@H](CO)NC(=O)[C@H](CO)NC(=O)[C@H](Cc1c[nH]cn1)NC(=O)[C@H](Cc1c[nH]cn1)NC(=O)[C@H](CC(C)C)NC(=O)[C@H](Cc1ccccc1)NC(=O)[C@H](CCC(=O)O)NC(=O)[C@H](C)NC(=O)[C@H](CC(C)C)NC(=O)[C@H](CCCNC(=N)N)NC(=O)[C@H](CCC(N)=O)NC(=O)[C@@H](NC(=O)[C@H](C)NC(=O)[C@@H]1CSSC[C@H](NC(=O)CC[C@H](NC(=O)CCCCCCCCCCCCCCCCCCC(=O)O)C(=O)O)C(=O)N[C@@H](CC(N)=O)C(=O)N[C@@H]([C@@H](C)O)C(=O)N[C@@H](C)C(=O)N[C@@H]([C@@H](C)O)C(=O)N1)[C@@H](C)O)C(=O)N[C@@H](CC(C)C)C(=O)N1CCC[C@H]1C(=O)N1CCC[C@H]1C(=O)N[C@H](C(=O)N[C@@H](CC(N)=O)C(=O)N[C@H](C(=O)NCC(=O)N[C@@H](CO)C(=O)N[C@@H](CC(N)=O)C(=O)N[C@H](C(=O)N1CCC[C@H]1C(N)=O)[C@@H](C)O)C(C)C)[C@@H](C)O` [Example 104, N-alpha-[(S)-4-Carboxy-4-(19-carboxynonadecanoylamino)butyryl]-[des1,Glu14,His17,Pro37]-pramlintide] ({C20 diacid-γGlu}-CNTATCATQRLAEFLHHSSNNFGPILPPTNVGSNTP-NH2; disulfide 1-6 (inferred)), the EC50 in data set [1] is 0.0795 nM; in data set [2], 0.107 nM. In addition, the “ThT pH 4.0 lag time (h)” value in data set [3] (ThT fibrillation assay) came to 23 h. In addition, the solubility at 18 h in data set [4] (setting [5]), in data set [4] (setting [6]), in data set [4] (setting [7]), in data set [4] (setting [8]), in data set [4] (setting [9]) and in data set [4] (setting [10]) was more than 200 µM throughout. Further, the solubility at 18 h in data set [4] (setting [11]), in data set [4] (setting [12]), in data set [4] (setting [13]) and in data set [4] (setting [14]) was more than 200 µM throughout.

Regarding `CC[C@H](C)[C@H](NC(=O)[C@@H]1CCCN1C(=O)CNC(=O)[C@H](Cc1ccccc1)NC(=O)[C@H](CC(N)=O)NC(=O)[C@H](CC(N)=O)NC(=O)[C@H](CO)NC(=O)[C@H](CO)NC(=O)[C@H](Cc1c[nH]cn1)NC(=O)[C@H](Cc1c[nH]cn1)NC(=O)[C@H](CC(C)C)NC(=O)[C@H](Cc1ccccc1)NC(=O)[C@H](CCC(=O)O)NC(=O)[C@H](C)NC(=O)[C@H](CC(C)C)NC(=O)[C@H](CCCNC(=N)N)NC(=O)[C@H](CCC(N)=O)NC(=O)[C@@H](NC(=O)[C@H](C)NC(=O)[C@@H]1CSSC[C@H](NC(=O)CNC(=O)CC[C@H](NC(=O)CCCCCCCCCCCCCCCCCCC(=O)O)C(=O)O)C(=O)N[C@@H](CC(N)=O)C(=O)N[C@@H]([C@@H](C)O)C(=O)N[C@@H](C)C(=O)N[C@@H]([C@@H](C)O)C(=O)N1)[C@@H](C)O)C(=O)N[C@@H](CC(C)C)C(=O)N1CCC[C@H]1C(=O)N1CCC[C@H]1C(=O)N[C@H](C(=O)N[C@@H](CC(N)=O)C(=O)N[C@H](C(=O)NCC(=O)N[C@@H](CO)C(=O)N[C@@H](CC(N)=O)C(=O)N[C@H](C(=O)N1CCC[C@H]1C(N)=O)[C@@H](C)O)C(C)C)[C@@H](C)O` [Example 91, N-alpha-[(S)-4-Carboxy-4-(19-carboxynonadecanoylamino)butyryl]-[Gly1,Glu14,His17,Pro37]-pramlintide] ({C20 diacid-γGlu}-GCNTATCATQRLAEFLHHSSNNFGPILPPTNVGSNTP-NH2; disulfide 2-7 (inferred); C-terminus assumed), the values for the EC50 in data set [1] and in data set [2] were 0.054 nM and 0.052 nM, respectively. Besides, the “ThT pH 4.0 lag time” value in data set [3] (Table 8) and in data set [3] (ThT fibrillation assay) was 29 h in each case. Also, in data set [3] (ThT fibrillation assay), the “ThT pH 4.0 lag time (h)” value is listed as 29 h. For the same compound, the solubility at 18 h is more than 200 µM in data set [4] (setting [5]); more than 200 µM in data set [4] (setting [6]); more than 200 µM in data set [4] (setting [7]); more than 200 µM in data set [4] (bistrispropane buffer, pH 7, pH 7.0, Table 8, read-out: Solubility pH 7.0); more than 200 µM in data set [4] (setting [8]); more than 200 µM in data set [4] (setting [9]). The solubility at 18 h in data set [4] (setting [10]), in data set [4] (setting [11]), in data set [4] (setting [12]), in data set [4] (setting [13]) and in data set [4] (setting [14]) was more than 200 µM each time.

Turning to `CC(C)C[C@H](NC(=O)[C@H](CCCNC(=N)N)NC(=O)[C@H](CCC(N)=O)NC(=O)[C@@H](NC(=O)[C@H](C)NC(=O)[C@@H]1CSSC[C@H](NC(=O)[C@H](CCCCN)NC(=O)CC[C@H](NC(=O)CCCCCCCCCCCCCCCCCCC(=O)O)C(=O)O)C(=O)N[C@@H](CC(N)=O)C(=O)N[C@@H]([C@@H](C)O)C(=O)N[C@@H](C)C(=O)N[C@@H]([C@@H](C)O)C(=O)N1)[C@@H](C)O)C(=O)N[C@@H](C)C(=O)N[C@@H](CCC(=O)O)C(=O)N[C@@H](Cc1ccccc1)C(=O)N[C@@H](CC(C)C)C(=O)N[C@@H](Cc1c[nH]cn1)C(=O)N[C@@H](Cc1c[nH]cn1)C(=O)N[C@@H](CO)C(=O)N[C@@H](CO)C(=O)N[C@@H](CC(N)=O)C(=O)N[C@@H](CC(N)=O)C(=O)N[C@@H](Cc1ccccc1)C(=O)NCC(=O)N[C@@H](C)C(=O)N1CCC[C@H]1C(=O)N[C@@H](CC(C)C)C(=O)N[C@@H](CO)C(=O)N[C@@H](CO)C(=O)N[C@H](C(=O)N[C@@H](CC(N)=O)C(=O)N[C@H](C(=O)NCC(=O)N[C@@H](CO)C(=O)N[C@@H](Cc1c[nH]cn1)C(=O)N[C@H](C(=O)N[C@@H](Cc1ccc(O)cc1)C(N)=O)[C@@H](C)O)C(C)C)[C@@H](C)O` [Example 64, N-alpha-[(S)-4-Carboxy-4-(19-carboxynonadecanoylamino)butyryl]-[Glu14,His17,Ala25,Pro26,Ser28,Ser29,His35]-pramlintide] ({C20 diacid-γGlu}-KCNTATCATQRLAEFLHHSSNNFGAPLSSTNVGSHTY-NH2; disulfide 2-7 (inferred)), the EC50 in data set [1] is 0.153 nM; in data set [2], 0.0945 nM. Moreover, in data set [3] (ThT fibrillation assay), the “ThT pH 4.0 lag time (h)” value was 6 h. For the same compound, the solubility at 18 h in data set [4] (setting [5]) is more than 200 µM; in data set [4] (setting [6]), 189 µM (≈ 835 µg/mL); in data set [4] (setting [8]) it was 91 µM (≈ 402 µg/mL); in data set [4] (setting [9]), 136 µM (≈ 601 µg/mL); in data set [4] (setting [10]) it was more than 200 µM; in data set [4] (setting [11]), more than 200 µM. Further, the solubility at 18 h in data set [4] (setting [12]), in data set [4] (setting [13]) and in data set [4] (setting [14]) was more than 200 µM throughout.

As usually defined, the EC50 is the concentration that produces a half-maximal response. For orientation: solubility means the concentration that dissolves in the medium under given conditions.
